Data set [1] addresses T1, Mouse histone methyltransferase G9a (969-1263) (Mus musculus, UniProt Q9Z148).
T1 construct: The 6His-sumo mG9a (969-1263) protein was purified using the following procedure; 6His-sumo (cleaved yes); made in house; host or cells: Escherichia coli BL21 (DE3)
T1 sequence (Q9Z148 969-1263): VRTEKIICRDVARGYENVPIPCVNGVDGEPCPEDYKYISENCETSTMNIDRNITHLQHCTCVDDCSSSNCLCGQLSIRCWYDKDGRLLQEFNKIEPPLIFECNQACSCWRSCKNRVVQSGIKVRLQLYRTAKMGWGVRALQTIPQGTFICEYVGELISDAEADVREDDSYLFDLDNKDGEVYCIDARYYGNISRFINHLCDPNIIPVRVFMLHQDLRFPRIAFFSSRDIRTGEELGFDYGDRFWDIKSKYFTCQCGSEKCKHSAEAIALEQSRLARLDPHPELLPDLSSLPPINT
The experiment in a line: MALDI-TOF methylation study of G9a inhibition. In kind it is biochemical. As to conditions: inhibitors at 5 μM concentration for 30 min. The procedure: Mouse histone methyltransferase G9a (969-1263) cDNA was amplified from the cDNA of BALB/c mouse thymus, and the fragment was sub-cloned into a vector with a 6His-sumo tag. […] The 6His-sumo mG9a (969-1263) protein was purified using the following procedure: harvested cell pellet was re-suspended in 20 mM Tris (pH 8.0), 500 mM NaCl, 0.1% β-mercaptoethanol, and 1 mM PMSF. Cells were lysed by sonicating for 15 seconds with 6 second intervals for a total time of 15 minutes on an ice bath. […] The 6His-sumo tag was cleaved from the column by adding Ubiquitin-like-specific protease 1 (ULP-1) at 4° C. for 12 hours. Wash buffer was then run through the Ni^+ column again and the elution buffer collected. Subsequently, advanced protein purification was done by HiTrap Q HP sequential Superdex 200 10/300 GL. Elute of every step was analyzed by SDS PAGE, stained by Coomassie brilliant blue (CBB). […] The reaction was incubated at room temperature for 30 min, and stopped by TFA. 1 μL of the sample was mixed with CHCA matrix and m/z peaks were obtained at reflection positive mode. The results of mass spectrum were analyzed using the Bruker flex analysis software and data processing was carried out as described below. MALDI-TOF based experiments were performed according to the protocol developed by Chang et al. (Nat. Struct. Mol. Biol. 2009, 16, 312-317). MALDI spectra were collected using Bruker flex control software and analyzed by flex analysis. After labelling each cluster peaks of H3K9Me0, H3K9Me1 and H3K9Me2 for all of the tested concentrations, area under the cluster (AUC) were extracted by using the same flex analysis software. % abundance of each peak was calculated by following formula: A=% Abundance of (H3K9Me0)=area of H3K9Me0/(area of H3K9Me0+area of H3K9Me1+area of H3K9Me2) B=% Abundance of (H3K9Me1)=area of H3K9Me1/(area of H3K9Me0+area of H3K9Me1+area of H3K9Me2) C=% Abundance of (H3K9Me2)=area of H3K9Me2/(area of H3K9Me0+area of H3K9Me1+area of H3K9Me2). This was repeated for each spectra (3 multiples for each samples). […] Finally % inhibition was found by subtracting % MA(i) from 100. […] A biochemical assay using MALDI-TOF was used to visualize the effects of the synthesized compounds on G9a enzymatic activity. […] Struct. Mol. Biol. 2009, 16, 312-317).

Data set [2] deals with HEK293. The experiment in a line: Toxicity assay (CCK-8) in control non-cancerous cell line. In kind it is cell-based. The protocol:
(§1) A549, MDA-MB-231, HCT-8, MCF-7, and HEK293 cells were seeded at 8000-10000 cells (100 μl) in white 96-well plates and pre-incubate the plate for 24 h under standard cell culture conditions, respectively. Then the cells were exposed to the different inhibitors with various concentrations for 72 h. Finally, 10 μl of CCK-8 kit solution was added to each well and incubated for 3-4 hours under standard cell culture conditions, and the 96 well plates were measured the absorbance at 450 nm using Perkin-Elmer Wallac Victor ^3V 1420 multi label plate reader (Perkin-Elmer, Wellesley, USA). EC50s were calculated using GraphPad Prizm statistical package with sigmoidal variable slope dose response curve fit.
(§2) Cell anti-proliferation assays were performed to determine the toxicity of these inhibitors. Several cell lines (MDA-MB-231, MCF-7, A549 and HCT-8) were incubated and then treated with varying concentrations of the inhibitors for 72 h, respectively. […] These compounds were further evaluated against the control cell line HEK293 to test their toxicity with a non-cancerous cell line.

Data set [3] concerns the target T2, G9a (Homo sapiens, UniProt Q96KQ7).
T2 construct: endogenous in cells; host or cells: MDA-MB-231
T2 sequence (Q96KQ7 1-1210): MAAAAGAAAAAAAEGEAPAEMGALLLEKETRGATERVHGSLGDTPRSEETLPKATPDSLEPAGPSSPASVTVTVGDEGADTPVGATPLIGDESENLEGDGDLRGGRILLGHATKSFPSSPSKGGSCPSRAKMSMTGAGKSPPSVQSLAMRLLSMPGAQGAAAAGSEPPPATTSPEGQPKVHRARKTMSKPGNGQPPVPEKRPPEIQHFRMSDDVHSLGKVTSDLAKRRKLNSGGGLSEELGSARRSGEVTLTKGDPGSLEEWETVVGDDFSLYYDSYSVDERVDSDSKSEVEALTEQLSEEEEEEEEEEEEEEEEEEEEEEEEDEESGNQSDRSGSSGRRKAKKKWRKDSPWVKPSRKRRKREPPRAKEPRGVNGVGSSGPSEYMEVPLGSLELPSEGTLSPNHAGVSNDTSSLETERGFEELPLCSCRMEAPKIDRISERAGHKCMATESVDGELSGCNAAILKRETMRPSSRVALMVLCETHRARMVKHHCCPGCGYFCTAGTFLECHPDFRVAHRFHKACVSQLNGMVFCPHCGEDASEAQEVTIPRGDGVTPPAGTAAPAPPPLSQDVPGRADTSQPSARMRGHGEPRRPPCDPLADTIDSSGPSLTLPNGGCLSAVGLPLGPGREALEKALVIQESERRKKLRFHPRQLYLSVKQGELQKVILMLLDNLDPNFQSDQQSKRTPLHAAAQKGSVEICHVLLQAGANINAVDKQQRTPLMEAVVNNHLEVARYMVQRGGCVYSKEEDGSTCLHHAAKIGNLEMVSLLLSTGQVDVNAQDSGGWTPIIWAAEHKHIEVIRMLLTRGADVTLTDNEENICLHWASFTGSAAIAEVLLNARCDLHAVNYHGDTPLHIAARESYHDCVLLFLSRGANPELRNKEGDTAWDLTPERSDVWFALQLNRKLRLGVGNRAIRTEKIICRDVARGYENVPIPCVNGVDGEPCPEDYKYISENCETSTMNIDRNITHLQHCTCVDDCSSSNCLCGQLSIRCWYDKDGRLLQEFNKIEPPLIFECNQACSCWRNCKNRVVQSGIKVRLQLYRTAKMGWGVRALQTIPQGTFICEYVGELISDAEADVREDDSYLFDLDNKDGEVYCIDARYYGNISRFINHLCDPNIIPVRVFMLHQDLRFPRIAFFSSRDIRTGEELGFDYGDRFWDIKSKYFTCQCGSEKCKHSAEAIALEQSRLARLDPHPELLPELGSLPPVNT
The experiment in a line: H3K9Me2 cell immunofluorescence in-cell Western (ICW) assay. In kind it is cell-based. As to conditions: MDA-MB-231 cell line, 48 h. The procedure: After the incubation, the media was removed and 100 μl fixation and permeabilization solution (2% formaldehyde in PBS) for fixation was added for 30 min. And then use 200 μl 0.1% Triton X100 in PBS washing solution to wash (allow wash to shake on a plate shaker for 5 minutes). After five washes, cells were blocked for 1 h with 150 μl blocking buffer to each well (1% BSA in PBS) (allow blocking at RT with moderate shaking on a plate shaker). After 1 h, remove the blocking buffer from the blocking step and add primary antibody in blocking buffer to cover the bottom of each well. […] The plates were read on an Odyssey CLX (LiCor) scanner at both 800 nm (H3K9me2 signal) and 700 nm (cell tag 700 stain signal) channels. IC50s were calculated using GraphPad Prizm statistical package with sigmoidal variable slope dose response curve fit.

The subject of data set [4] is HCT-8. The experiment in a line: Cytotoxicity / anti-proliferation assay (CCK-8), HCT-8. The note with it: Homo sapiens, 72 h, CCK-8 kit. In kind it is cell-based. The procedure: (§3) Then the cells were exposed to the different inhibitors with various concentrations for 72 h. […] EC50s were calculated using GraphPad Prizm statistical package with sigmoidal variable slope dose response curve fit.
(§4) Cell anti-proliferation assays were performed to determine the toxicity of these inhibitors. […] These compounds were further evaluated against the control cell line HEK293 to test their toxicity with a non-cancerous cell line.
(In general: Formazan colour is commonly taken as a measure of viable cells.)

Data set [5] relates to HDAC. The experiment in a line: Homogeneous cellular HDAC assay, statements in text without one cell line. As to conditions: result in words.
Experimental: (§5) After 24 h, 9 μl inhibitors with different concentration were added to the HeLa cells and incubation was continued for 3 h under cell culture conditions. After this treatment period, 10 μl of a 2 mM stock solution of the substrate Boc-K(Ac)-AMC was added into the 96 well plates with Hela cells and inhibitors. […] A549 and K562 cell lines used the same method, respectively. IC50s were calculated using GraphPad Prizm statistical package with sigmoidal variable slope dose response curve fit.
(§6) Boc-K(Ac)-AMC was used as a cell-permeable HDAC substrate, as after deacetylation it is cleaved by trypsin to release the florescent 7-amino-4-methylcoumarin (AMC).
The subject of data set [6] is MDA-MB-231. The experiment in a line: Cytotoxicity / anti-proliferation assay (CCK-8), MDA-MB-231. It counts as cell-based. The note with it: Homo sapiens. The protocol: as §1, §2
Data set [7] concerns HDAC. The experiment in a line: Cell based homogenous HDAC assay, Hela. The note with it: read-out: IC50-HDAC Hela; Hela cells, mean ± SD of triplicate.
Experimental: as §5, §6
The test system of data set [8] is HDAC. The experiment in a line: Cell based homogenous HDAC assay, A549. As to conditions: read-out: IC50-HDAC A549; A549 cells, mean ± SD of triplicate.
Experimental: as §5, §6
Data set [9] deals with HDAC. The experiment in a line: Cell based homogenous HDAC assay, K562. As to conditions: read-out: IC50-HDAC K562; K562 cells, mean ± SD of triplicate.
Experimental: as §5, §6
The test system of data set [10] is A549. The experiment in a line: Cytotoxicity / anti-proliferation assay (CCK-8), A549. The note with it: Homo sapiens, 72 h, CCK-8 kit. In kind it is cell-based. The protocol: as §3, §4
[11] abbreviates: alone or as 1:1 mixture, 1-100 μM, read-out: EC50 value.

This is an account of results in US20190322643A1 (Georgia State University Research Foundation, Inc., priority 2016, published 2019).

“Also recorded” adds a separate entry of the source. Where two headings read alike, the source gives them in different places. Bounds are passed on as bounds.

As a reminder, the inhibition is the percentage by which the read-out fell short of the control. Read a high inhibition as a response far below the control. Broadly, the IC50 is the concentration at which inhibition is half-maximal. As usually defined, the EC50 is the concentration giving half of the maximal effect. In data set [1], `COc1ccc2c(NC3CCN(Cc4ccccc4)CC3)nc(NCCNC(=O)CCCCCC(=O)NO)nc2c1` [Compound 14, N1-(2-((4-((1-benzylpiperidin-4-yl)amino)-7-methoxyquinazolin-2-yl)amino)ethyl)-N7-hydroxyheptanediamide] yielded an inhibition at 5 µM of 69.5 ± 3.43%. Besides, the “toxicity in normal cell line” value in [2] is reported as “lower toxicity; also recorded: less toxic compared to 13”. Besides, in data set [3], the IC50 was 7.14 ± 1.62 µM. In data set [4], the EC50 came out at 73.1 ± 1.21 µM. Further, in [5], the HDAC inhibition activity entry is “significant HDAC inhibition”.

In turn, `COc1ccc2c(NC3CCN(Cc4ccccc4)CC3)nc(NCCNC(=O)CCCCCCC(=O)NO)nc2c1` [Compound 13, N1-(2-((4-((1-benzylpiperidin-4-yl)amino)-7-methoxyquinazolin-2-yl)amino)ethyl)-N8-hydroxyoctanediamide] registered an inhibition at 5 µM in [1] of 62 ± 14.4%. Also, the “toxicity in normal cell line” value in data set [2] is reported as “lower toxicity”. This compound registered an IC50 in data set [3] of 37.8 ± 2.8 µM. Further, the EC50 in [4] is over 100 µM. Further, the HDAC inhibition activity entry in data set [5] is recorded as “significant HDAC inhibition”.

On to `O=C(CCCCCCC(=O)Nc1ccccc1)NO` [SAHA, N-hydroxy-N′-phenyl-octanediamide], for which the “toxicity in normal cell line” value in [2] is “toxic”. Also, the half-maximal effective concentration (EC50) in data set [6] (72 h, CCK-8 kit, read-out: EC50 MDA-MB-231) came to 2.87 ± 0.84 µM; in data set [6] (setting [11]), 2.87 ± 0.84 µM.

The compound `COc1cc2nc(N3CCCN(C)CC3)nc(NC3CCN(Cc4ccccc4)CC3)c2cc1OC.Cl.Cl.Cl` [BIX-01294, 2-(hexahydro-4-methyl-1H-1,4-diazepin-1-yl)-6,7-dimethoxy-N-[1-(phenylmethyl)-4-piperidinyl]-4-quinazolinamine trihydrochloride, reference compound] displayed an inhibition at 5 µM in data set [1] of 77.7 ± 5.73%. Besides, the half-inhibitory concentration (IC50) in data set [7], in data set [8] and in data set [9] was over 100 µM each time. Moreover, the “toxicity in normal cell line” value in data set [2] is recorded as “toxic”. Moreover, the half-maximal effective concentration (EC50) in data set [6] (setting [11]) was 2.16 ± 0.88 µM.

For `COc1cc2nc(NCCNC(=O)CCCCCC(=O)NO)nc(NC3CCN(Cc4ccccc4)CC3)c2cc1OC` [Compound 5b, N1-(2-((4-((1-benzylpiperidin-4-yl)amino)-6,7-dimethoxyquinazolin-2-yl)amino)ethyl)-N7-hydroxyheptanediamide], the inhibition at 5 µM in data set [1] stood at 38 ± 4.99%. Besides, the concentration giving a half-maximal response (EC50) in [10] and in data set [4] was over 100 µM in each case. For the same compound, the IC50 in data set [3] was 87.4 ± 5.44 µM. Also, the HDAC inhibition activity result in data set [5] is on record as “much lower than that of 14”.
